# Experimental data reported in patent US20140248212A1, “NON-IMMUNOGENIC POSITRON EMISSION TOMOGRAPHY REPORTER GENE SYSTEMS” (THE REGENTS OF THE UNIVERSITY OF CALIFORNIA, priority 2011, published 2014).
# Positions count from the first letter of the chain named. Entries after “also recorded” stand apart in the source; their conditions may differ.
# Columns and labels:
# [1] = biological target: T1, TK2-L109F (Homo sapiens, UniProt O00142, L109F); test: Kinetic analyses of recombinant TK2 (NADH-dependent enzyme coupled assay), TK2-L109F; conditions: 37° C., 1 mM ATP
# T1 sequence (O00142 51-265 L109F): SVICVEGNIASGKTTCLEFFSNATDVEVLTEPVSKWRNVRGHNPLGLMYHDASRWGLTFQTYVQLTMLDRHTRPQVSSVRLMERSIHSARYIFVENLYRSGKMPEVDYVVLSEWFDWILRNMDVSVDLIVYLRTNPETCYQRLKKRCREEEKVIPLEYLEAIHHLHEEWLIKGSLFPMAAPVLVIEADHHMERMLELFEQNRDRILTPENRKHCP
# Procedure: (§3) A NADH-dependent enzyme coupled assay (see, e.g. Agarwal, K. C., et al. (1978) Methods Enzymol. 51, 483-490) was used. Using a Cary UV spectrophotometer, measurements were made in triplicate at 37° C. in a buffer containing 100 mM Tris, pH 7.5, 100 mM KCl, 5 mM MgCl2, and 1 mM ATP. For data in which kobs is given, a single nucleoside concentration of 200 μM was used. For data in which both Km and kcat are given, the nucleoside concentration was varied between 15 and 500 μM. TK2 concentration in the cuvette was 400 nM. Data were fit to the Michaelis-Menten equation using SigmaPlot. […] Therefore, all of the kinetic data using the Michaelis-Menten equation without the Hill coefficient is presented.
# [2] = biological target: deoxycytidine kinase (dCK) (Homo sapiens, UniProt P27707); conditions: cited from earlier work
# [3] = biological target: T2, thymidine kinase 2 (TK2) (Homo sapiens, UniProt O00142); conditions: cited from earlier work
# T2 sequence (O00142 34-265): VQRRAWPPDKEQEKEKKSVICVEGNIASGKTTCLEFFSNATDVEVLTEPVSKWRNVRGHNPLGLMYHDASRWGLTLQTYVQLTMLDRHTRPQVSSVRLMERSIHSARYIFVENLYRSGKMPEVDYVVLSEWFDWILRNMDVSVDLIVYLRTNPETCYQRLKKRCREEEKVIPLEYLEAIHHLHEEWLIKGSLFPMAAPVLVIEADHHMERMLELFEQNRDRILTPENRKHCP
# [4] = biological target: T3, TK2-N93D (Homo sapiens, UniProt O00142, N93D); test: Kinetic analyses of recombinant TK2 (NADH-dependent enzyme coupled assay), TK2-N93D; conditions: 37° C., 1 mM ATP
# T3 sequence (O00142 51-265 N93D): T1 sequence (O00142 51-265 L109F) with N43D, F59L
# Procedure: as §3
# [5] = biological target: T4, TK2-N93D/L109F (Homo sapiens, UniProt O00142, L109F/N93D); test: Kinetic analyses of recombinant TK2 (NADH-dependent enzyme coupled assay), TK2-N93D/L109F; assay type: biochemical; conditions: 37° C., 1 mM ATP
# T4 construct: hexahistidine (N, cleaved yes); SUMO (N, cleaved yes); made in house; host or cells: Escherichia coli BL21 (DE3) C41, modified pET14b
# T4 sequence (O00142 51-265 N93D/L109F): T1 sequence (O00142 51-265 L109F) with N43D
# Procedure: FIG. 34 provides a table that illustrates the kinetics of the phosphorylation of D and L-nucleosides by the TK2 mutants. Kinase assays were performed with recombinant protein with 200 μM of the listed substrate.
# [6] = biological target: T5, WT TK2 (Homo sapiens, UniProt O00142); test: Kinetic analyses of recombinant TK2 (NADH-dependent enzyme coupled assay), WT TK2; assay type: biochemical; conditions: 37° C., 1 mM ATP
# T5 construct: hexahistidine (N, cleaved yes); SUMO (N, cleaved yes); made in house; host or cells: Escherichia coli BL21 (DE3) C41, modified pET14b
# T5 sequence (O00142 51-265): T1 sequence (O00142 51-265 L109F) with F59L
# [7] = test system: WT TK2; conditions: reported by Ponomarev et al. 2007; cited from earlier work
# [8] = accumulation in liver, small intestine, kidneys, urinary bladder only; cited from earlier work
# [9] = test system: L1210 tumors expressing HSV1-sr39tk; test: microPET/CT of SCID mice bearing L1210-PRG tumors (HSV1-sr39tk); assay type: in vivo
# Source text: (§1) To compare TK2, TK2-N93D and HSV1-sr39tk in vivo, PRG-expressing L1210 cells were implanted subcutaneously in SCID mice that were then scanned with L-[^18F]FMAU (FIG. 10A) and [^18F]FHBG (FIG. 10C) on consecutive days. […] Signals obtained with sr39tk were slightly higher than those obtained with the human TK2-N93D PRG (the difference was not statistically significant). […] L-[^18F]FMAU accumulation in TK2-N93D transduced tumors was ˜20 times higher than the accumulation in tumors transduced with the control (eYFP only) vector. While this ratio is higher than the 6.67 ratio reported for WT TK2 as a PRG with D-[^18F]FEAU as the PRP (see, e.g. Ponomarev, V., et al. J Nucl Med 48:819-826, 2007), the HSV1-sr39tk/[^18F]FHBG combination still outperforms the TK2-N93D/L-[^18F]FMAU combination by ˜2-fold. […]
# Animal studies were approved and carried out according to specific guidelines. […] Image data were evaluated in three-dimensional histograms and reconstructed with a zoom factor of 2.1 using three-dimensional ordered set expectation maximization (OSEM) with 2 iterations followed by MAP (maximum a posteriori) reconstruction with 18 iterations (beta=0.1). Images were analyzed using OsiriX Imaging Software Version 3.8. […]
# [10] = Biodistribution of PET reporter probes in mice (microPET/CT); assay type: in vivo, C57/BL6 mice
# Procedure: To identify candidate PRPs, eight nucleoside analogs (FIG. 7A) were synthesized that were amenable to ^18F labeling (the first criterion for PRPs). To identify PRP candidates with rapid clearance from normal tissues and low overall background (second criterion for PRGs), biodistribution studies in mice were performed. It was observed that natural (D) nucleosides had higher background than non-natural (L) nucleoside analogs. […] The next step was to identify a human nucleoside kinase that phosphorylates L-[^18F]FMAU and L-[^18F]FEAU, and can be converted into a new PRG that matches four criteria:
# Initially, a group of nucleoside analogs amenable to fluorine-18 labeling were identified. These PET tracers, 5 of which were novel, were then screened to determine their biodistribution in C57/BL6 mice (n=3 for each PET tracer) through dynamic microPET scans. […] Rational design is utilized to introduce mutations into human nucleoside kinase thymidine kinase 2 (TK2) to improve the affinity of the kinase for the top candidate probe. The sensitivity and specificity of the novel PET reporter probe/gene pair was then determined in vitro and in vivo using a murine cancer model.
# (§2) Animal studies were approved and carried out according to specific guidelines. C57/BL6 mice were injected with the indicated probe and underwent micro-PET/CT analyses at 1- and 3-h post probe injection (Inveon, Siemens Medical Solutions USA Inc.; microCAT; Imtek Inc.). For tumor imaging studies, SCID mice were injected subcutaneously on day −7 in the right and left flanks with 1×10^6 L1210-PRG-expressing cells in 50% v/v phosphate-buffered saline and 50% v/v Matrigel™ (BD Biosciences). For imaging experiments, mice were kept warm and under gas anesthesia (2% v/v isoflurane) and were injected intravenously with 200 μCi of ^18F-labeled probes. A 3-h interval was allowed between probe administration and microPET/CT scanning Static microPET images were acquired for 600 s. Image data were evaluated in three-dimensional histograms and reconstructed with a zoom factor of 2.1 using three-dimensional ordered set expectation maximization (OSEM) with 2 iterations followed by MAP (maximum a posteriori) reconstruction with 18 iterations (beta=0.1). Images were analyzed using OsiriX Imaging Software Version 3.8.
# [11] = test system: L1210 tumors expressing WT TK2; test: microPET/CT of SCID mice bearing L1210-PRG tumors (WT TK2); assay type: in vivo; conditions: 3 hrs post-injection, FIG. 10D
# Source text: as §1
# Animal studies were approved and carried out according to specific guidelines. […] Image data were evaluated in three-dimensional histograms and reconstructed with a zoom factor of 2.1 using three-dimensional ordered set expectation maximization (OSEM) with 2 iterations followed by MAP (maximum a posteriori) reconstruction with 18 iterations (beta=0.1). Images were analyzed using OsiriX Imaging Software Version 3.8.
# [12] = Human whole-body PET/CT biodistribution of PET reporter probes; assay type: in vivo
# Source text: All studies involving human volunteers were approved. A healthy person and a healthy volunteer were recruited for the L-^18F-FMAU biodistribution study. Each volunteer received a bolus intravenous injection of ˜56 MBq (1.5 mCi) sterile L-^18F-FMAU and had four consecutive whole-body (starting from just above the head to above the knees, 6 bed positions, 5-min scan at each bed position) PET scans (Biograph 64, Siemens), with the first scan starting shortly after intravenous injection of L-^18F-FMAU. A low dose CT scan was also obtained for attenuation correction. Volunteers urinated after all scans had been performed. The region of interest analysis was performed to measure mean standard uptake values of L-^18F-FMAU in major organs/tissues. To illustrate the biodistribution of ^18F-FHBG, unpublished scan from a previous study (see, e.g. Yaghoubi, S. S., et al. (2009) Nat. Clin. Pract. Oncol. 6, 53-58) was used.
# [13] = test system: L1210 tumors expressing TK2-N93D; test: microPET/CT of SCID mice bearing L1210-PRG tumors (TK2-N93D); assay type: in vivo; conditions: 3 hrs post-injection, FIG. 10D
# Source text: To compare TK2, TK2-N93D and HSV1-sr39tk in vivo, PRG-expressing L1210 cells were implanted subcutaneously in SCID mice that were then scanned with L-[^18F]FMAU (FIG. 10A) and [^18F]FHBG (FIG. 10C) on consecutive days. […] Signals obtained with sr39tk were slightly higher than those obtained with the human TK2-N93D PRG (the difference was not statistically significant). […] L-[^18F]FMAU accumulation in TK2-N93D transduced tumors was ˜20 times higher than the accumulation in tumors transduced with the control (eYFP only) vector. While this ratio is higher than the 6.67 ratio reported for WT TK2 as a PRG with D-[^18F]FEAU as the PRP (see, e.g. Ponomarev, V., et al. J Nucl Med 48:819-826, 2007), the HSV1-sr39tk/[^18F]FHBG combination still outperforms the TK2-N93D/L-[^18F]FMAU combination by ˜2-fold. The significance of the 2-fold difference for the sensitivity of the new TK2-N93D PRG can be further investigated in the animal models discussed below (see, e.g. Gerth, M. L., et al. Biochem Biophys Res Commun 354:802-807, 2007; Liu, L., et al. Nucleic Acids Res 37:4472-4481, 2009; Iyidogan, P., et al. Biochemistry 47:4711-4720, 2008; Lutz, S., et al. Chimia (Aarau) 63:737-744 2009).
# as §2
# Sequence of deoxycytidine kinase (dCK) (P27707 whole entry): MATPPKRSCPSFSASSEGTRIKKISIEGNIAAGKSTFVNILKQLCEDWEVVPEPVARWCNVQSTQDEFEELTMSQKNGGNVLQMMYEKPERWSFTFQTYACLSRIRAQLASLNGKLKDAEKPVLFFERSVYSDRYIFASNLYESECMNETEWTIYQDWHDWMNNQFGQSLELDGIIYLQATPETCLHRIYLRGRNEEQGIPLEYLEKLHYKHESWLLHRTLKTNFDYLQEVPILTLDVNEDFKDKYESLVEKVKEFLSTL
smiles,measurement,setting,value
Cc1cn([C@H]2O[C@@H](CO)[C@H](O)[C@H]2F)c(=O)[nH]c1=O [L-FMAU],kcat (L-FMAU)/kcat (D-dT) ratio,[1],2.4
same,activity of kinase towards nucleoside analog,[2],Very low activity with L-FMAU
same,activity of kinase towards nucleoside analog,[3],"substrate for human TK2; also recorded: active towards L-FMAU, D-"
same,decrease of kcat relative to WT TK2,[4],32%
same,increase of kcat/Km compared with WT TK2,[4],77%
same,kcat (L-FMAU)/kcat (D-dT) ratio compared with wild type,[4],nearly triples
same,increase of kcat compared with TK2,[5],100%
same,kcat (L-FMAU)/kcat (D-dT) ratio,[5],14.9
same,"kcat (L-FMAU)/kcat (D-dT) ratio, higher than that for TK2",[5],4 fold
same,"kcat (L-FMAU)/kcat (D-dT) ratio, higher than that for TK2-N93D",[5],~40%
same,kcat (L-FMAU)/kcat (D-dT) ratio,[6],3.7
"CCc1cn([C@@H]2O[C@H](CO)[C@@H](O)[C@@H]2F)c(=O)[nH]c1=O [D-[^18F]FEAU, 2′-deoxy-2′-^18F-5-ethyl-1-β-D-arabinofuranosyluracil]",activity of kinase towards nucleoside analog,[3],"active towards L-FMAU, D-"
same,"ratio of accumulation, PRG versus control",[7],6.67
same,biodistribution as a candidate PRP,[8],favorable biodistribution
"Nc1nc2c(ncn2CCC(CO)C[18F])c(=O)[nH]1 (stereo not drawn) [^18F-FHBG, 9-[4-[^18F]fluoro-3-(hydroxymethyl)butyl]guanine, reference compound]",probe uptake in L1210 tumors,"[9]; 18F-FHBG, 3 h post-injection",24.1±6.2 % injected dose/g
same,HSV1-sr39tk/[18F]FHBG combination outperforms TK2-N93D/L-[18F]FMAU combination,[9]; tumor to control ratio,~2 fold
same,accumulation in the liver,[10]; 3-h time point,neither probe showed any accumulation
same,accumulation in the gallbladder,[10]; 3 h after administration,7.45±5.31 % injected dose/g
same,"accumulation in the gallbladder, 18F-FHBG relative to L-18F-FMAU",[10]; 3 h after administration,4 times
same,"retention in the abdominal cavity, 18F-FHBG relative to L-18F-FMAU",[10]; 3 h after administration,three times higher
same,retention in the thoracic cavity,[10]; 3 h after administration,very low retention
same,signals in the GI tract,[10]; 3 h after administration,detected throughout the GI tract
same,abdominal background,"[10]; mice, compared with [18F]FHBG",high abdominal background
same,[18F]FHBG accumulation in tumors,[11],Neither WT TK2 nor TK2-N93D expressing tumors accumulated detectable amounts
same,tissues with relatively high signals,[12]; 2 h post-administration,"relatively high signals were observed in liver, kidneys, gall bladder, bladder, and the GI tract"
same,tracer background within abdomen and pelvis,"[12]; whole-body PET/CT, human",high abdominal background
same,[18F]FHBG accumulation in tumors,[13],Neither WT TK2 nor TK2-N93D expressing tumors accumulated detectable amounts
